# From patent publication US12344597B2, “Alkoxy-substituted pyridinyl derivatives as LPA1 receptor antagonists and their use in the treatment of fibrosis” (IDORSIA PHARMACEUTICALS LTD, priority 2018, dated 2025)
# Target: human LPA1 receptor (Homo sapiens (Human), UniProt Q92633)
# Assay: Beta-arrestin recruitment assay to determine IC50 values for human LPAR1
# Format: cell-based
# Settings: antagonist mode, Tango EDG2-bla U2OS cells, LPA 18:1 500 nM final
# Summary of the method: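 Antagonist IC50 = concentration giving 50% inhibition of maximal LPA response. Read-out is beta-lactamase reporter activity after arrestin-protease recruitment in U2OS cells bearing LPA1-TEV-Gal4-VP16 construct; cells pre-incubated 20 h, 37 °C, 5% CO2.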
# Sequence of human LPA1 receptor (Q92633 whole entry): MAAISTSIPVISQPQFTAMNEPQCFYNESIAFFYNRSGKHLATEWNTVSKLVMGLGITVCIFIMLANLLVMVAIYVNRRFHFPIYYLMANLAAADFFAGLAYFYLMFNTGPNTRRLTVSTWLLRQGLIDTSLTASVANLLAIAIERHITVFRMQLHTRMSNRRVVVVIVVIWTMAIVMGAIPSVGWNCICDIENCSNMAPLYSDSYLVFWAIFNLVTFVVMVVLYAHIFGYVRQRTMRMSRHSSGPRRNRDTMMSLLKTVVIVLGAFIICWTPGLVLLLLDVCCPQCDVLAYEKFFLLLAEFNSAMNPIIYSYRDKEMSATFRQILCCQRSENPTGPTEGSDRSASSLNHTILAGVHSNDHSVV
row,IC50 [nM],SMILES
1,7,"Cc1ccc(NC(=O)C2(c3ccccc3C(C)C)CN(c3cccc(C(=O)O)n3)C2)c(OC(F)F)n1 [Ex 18-3, 6-(3-((2-(difluoromethoxy)-6-methylpyridin-3-yl)carbamoyl)-3-(2-isopropylphenyl)azetidin-1-yl)picolinic acid]"
2,70,"Cc1ccc(NC(=O)C2(c3ncccc3C(C)C)CN(C(=O)CCC(=O)O)C2)c(OC(F)F)n1 [Ex 61, 4-(3-((2-(difluoromethoxy)-6-methylpyridin-3-yl)carbamoyl)-3-(3-isopropylpyridin-2-yl)azetidin-1-yl)-4-oxobutanoic acid]"
3,12,"Cc1ccc(NC(=O)C2(c3ccccc3C(C)C)CN(C(=O)NCC(C)(C)C(=O)O)C2)c(OC(F)F)n1 [Ex 17-17, 3-(3-((2-(difluoromethoxy)-6-methylpyridin-3-yl)carbamoyl)-3-(2-isopropylphenyl)azetidine-1-carboxamido)-2,2-dimethylpropanoic acid]"
4,191,"Cc1ccc(NC(=O)C2(c3ccccc3C(C)C)CN(CCN(C)C)C2)c(OC(F)F)n1 [Ex 11-78, N-(2-(difluoromethoxy)-6-methylpyridin-3-yl)-1-(2-(dimethylamino)ethyl)-3-(2-isopropylphenyl)azetidine-3-carboxamide]"
5,22,"Cc1ccc(NC(=O)C2(c3ccccc3C(C)C)CN(CC(N)=O)C2)c(OC(F)F)n1 [Ex 11-15, 1-(2-amino-2-oxoethyl)-N-(2-(difluoromethoxy)-6-methylpyridin-3-yl)-3-(2-isopropylphenyl)azetidine-3-carboxamide]"
6,56,"COc1ccc(C(C)C)c(C2(C(=O)Nc3ccc(C)nc3OC(F)F)CN(C(=O)CC(C)(C)C(=O)O)C2)c1 [Ex 39-6, 4-(3-((2-(difluoromethoxy)-6-methylpyridin-3-yl)carbamoyl)-3-(2-isopropyl-5-methoxyphenyl)azetidin-1-yl)-2,2-dimethyl-4-oxobutanoic acid]"
7,15,"Cc1ccc(NC(=O)C2(c3ccccc3C(C)C)CN(C(=O)C[C@H](C)C(=O)O)C2)c(OC(F)F)n1 [Ex 12-79, (S)-4-(3-((2-(difluoromethoxy)-6-methylpyridin-3-yl)carbamoyl)-3-(2-isopropylphenyl)azetidin-1-yl)-2-methyl-4-oxobutanoic acid]"
8,366,"COC(=O)C(C)(C)CS(=O)(=O)N1CC(C(=O)Nc2ccc(C)nc2OC(F)F)(c2ccccc2C(C)C)C1 [Ex 13-11, methyl 3-((3-((2-(difluoromethoxy)-6-methylpyridin-3-yl)carbamoyl)-3-(2-isopropylphenyl)azetidin-1-yl)sulfonyl)-2,2-dimethylpropanoate]"
9,46,"Cc1ccc(NC(=O)C2(c3ccccc3C(C)C)CN(C(=O)NC3(C(=O)O)CC3)C2)c(OC(F)F)n1 [Ex 17-11, 1-(3-((2-(difluoromethoxy)-6-methylpyridin-3-yl)carbamoyl)-3-(2-isopropylphenyl)azetidine-1-carboxamido)cyclopropane-1-carboxylic acid]"
10,7,"COC(=O)C1(CNC(=O)N2CC(C(=O)Nc3ccc(C)nc3OC(F)F)(c3ccccc3C(C)C)C2)CC1 [Ex 17-14, methyl 1-((3-((2-(difluoromethoxy)-6-methylpyridin-3-yl)carbamoyl)-3-(2-isopropylphenyl)azetidine-1-carboxamido)methyl)cyclopropane-1-carboxylate]"
11,97,"CCOC(=O)/C=C/C(=O)N1CC(C(=O)Nc2ccc(C)nc2OC(F)F)(c2ccccc2C(C)C)C1 [Ex 12-74, ethyl (E)-4-(3-((2-(difluoromethoxy)-6-methylpyridin-3-yl)carbamoyl)-3-(2-isopropylphenyl)azetidin-1-yl)-4-oxobut-2-enoate]"
12,158,"CC(=O)NS(=O)(=O)N1CC(C(=O)Nc2cccnc2OC(F)F)(c2ccccc2C(C)C)C1 [Ex 16-2, 1-(N-acetylsulfamoyl)-N-(2-(difluoromethoxy)pyridin-3-yl)-3-(2-isopropylphenyl)azetidine-3-carboxamide]"
13,71,"CCOC(=O)c1coc(N2CC(C(=O)Nc3cccnc3OC(F)F)(c3ccccc3C(C)C)C2)n1 [Ex 18-29, ethyl 2-(3-((2-(difluoromethoxy)pyridin-3-yl)carbamoyl)-3-(2-isopropylphenyl)azetidin-1-yl)oxazole-4-carboxylate]"
14,6,"Cc1ccc(NC(=O)C2(c3ccccc3C(C)C)CN(c3nc(C(=O)O)co3)C2)c(OC(F)F)n1 [Ex 18-28, 2-(3-((2-(difluoromethoxy)-6-methylpyridin-3-yl)carbamoyl)-3-(2-isopropylphenyl)azetidin-1-yl)oxazole-4-carboxylic acid]"
15,23,"Cc1ccc(NC(=O)C2(c3ccccc3C(C)C)CN(CC3(CC(=O)O)CC3)C2)c(OC(F)F)n1 [Ex 11-68, 2-(1-((3-((2-(difluoromethoxy)-6-methylpyridin-3-yl)carbamoyl)-3-(2-isopropylphenyl)azetidin-1-yl)methyl)cyclopropyl)acetic acid]"
16,14,"Cc1ccc(NC(=O)C2(c3ccccc3C(C)C)CN(C(=O)OC3(C(=O)O)CC3)C2)c(OC(F)F)n1 [Ex 14-8, 1-((3-((2-(difluoromethoxy)-6-methylpyridin-3-yl)carbamoyl)-3-(2-isopropylphenyl)azetidine-1-carbonyl)oxy)cyclopropane-1-carboxylic acid]"

row,IC50 [nM],SMILES
1,10,"Cc1ccc(NC(=O)C2(c3ccccc3C(C)C)CN(C(=O)[C@H](C)N)C2)c(OC(F)F)n1 [Ex 12-33, 1-(L-alanyl)-N-(2-(difluoromethoxy)-6-methylpyridin-3-yl)-3-(2-isopropylphenyl)azetidine-3-carboxamide]"
2,12,"Cc1ccc(NC(=O)C2(c3ccccc3C(C)C)CN(c3noc(O)n3)C2)c(OC(F)F)n1 [Ex 21, N-(2-(difluoromethoxy)-6-methylpyridin-3-yl)-1-(5-hydroxy-1,2,4-oxadiazol-3-yl)-3-(2-isopropylphenyl)azetidine-3-carboxamide]"
3,103,"Cc1ccc(NC(=O)C2(c3ccccc3C(C)C)CN(C(=O)CN3CCC(C(=O)O)CC3)C2)c(OC(F)F)n1 [Ex 48, 1-(2-(3-((2-(difluoromethoxy)-6-methylpyridin-3-yl)carbamoyl)-3-(2-isopropylphenyl)azetidin-1-yl)-2-oxoethyl)piperidine-4-carboxylic acid]"
4,61,"Cc1cnc(NC(=O)C2(c3ccccc3C(C)C)CN(C(=O)CC3(C(=O)O)CCC3)C2)c(OC(F)F)c1 [Ex 79-7, 1-(2-(3-((3-(difluoromethoxy)-5-methylpyridin-2-yl)carbamoyl)-3-(2-isopropylphenyl)azetidin-1-yl)-2-oxoethyl)cyclobutane-1-carboxylic acid]"
5,10,"CCOC(=O)c1c[nH]nc1CN1CC(C(=O)Nc2ccc(C)nc2OC(F)F)(c2ccccc2C(C)C)C1 [Ex 11-39, ethyl 3-((3-((2-(difluoromethoxy)-6-methylpyridin-3-yl)carbamoyl)-3-(2-isopropylphenyl)azetidin-1-yl)methyl)-1H-pyrazole-4-carboxylate]"
6,235,"Cc1ccc(NC(=O)C2(c3ccccc3C3=CCCC3)CNC2)c(OC(F)F)n1 [Ex 26, 3-(2-(cyclopent-1-en-1-yl)phenyl)-N-(2-(difluoromethoxy)-6-methylpyridin-3-yl)azetidine-3-carboxamide]"
7,33,"Cc1ccc(NC(=O)C2(c3c(C)cccc3C(C)C)CNC2)c(OC(F)F)n1 [Ex 33, N-(2-(difluoromethoxy)-6-methylpyridin-3-yl)-3-(2-isopropyl-6-methylphenyl)azetidine-3-carboxamide]"
8,63,"CNC(C)(C)CN1CC(C(=O)Nc2ccc(C)nc2OC(F)F)(c2ccccc2C(C)C)C1 [Ex 11-64, N-(2-(difluoromethoxy)-6-methylpyridin-3-yl)-3-(2-isopropylphenyl)-1-(2-methyl-2-(methylamino)propyl)azetidine-3-carboxamide]"
9,140,"COC(=O)C(C)(C)CC(=O)N1CC(C(=O)Nc2ccc(OC)nc2OC)(c2ccccc2C(C)C)C1 [Ex 12-85, methyl 4-(3-((2,6-dimethoxypyridin-3-yl)carbamoyl)-3-(2-isopropylphenyl)azetidin-1-yl)-2,2-dimethyl-4-oxobutanoate]"
10,150,"Cc1ccc(NC(=O)C2(c3ccccc3C(C)C)CN(C(=O)COCCOCC(=O)O)C2)c(OC(F)F)n1 [Ex 12-107, 2-(2-(2-(3-((2-(difluoromethoxy)-6-methylpyridin-3-yl)carbamoyl)-3-(2-isopropylphenyl)azetidin-1-yl)-2-oxoethoxy)ethoxy)acetic acid]"
11,270,"CCCOc1nc(C)ccc1NC(=O)C1(c2ccccc2C(C)C)CN(S(N)(=O)=O)C1 [Ex 59, 3-(2-isopropylphenyl)-N-(6-methyl-2-propoxypyridin-3-yl)-1-sulfamoylazetidine-3-carboxamide]"
12,8,"CC(=O)N(CC(=O)N1CC(C(=O)Nc2ccc(C)nc2OC(F)F)(c2ccccc2C(C)C)C1)OCc1ccccc1 [Ex 12-135, 1-(N-acetyl-N-(benzyloxy)glycyl)-N-(2-(difluoromethoxy)-6-methylpyridin-3-yl)-3-(2-isopropylphenyl)azetidine-3-carboxamide]"
13,47,"COC(=O)c1cc(CN2CC(C(=O)Nc3ccc(C)nc3OC(F)F)(c3ccccc3C(C)C)C2)ccn1 [Ex 11-50, methyl 4-((3-((2-(difluoromethoxy)-6-methylpyridin-3-yl)carbamoyl)-3-(2-isopropylphenyl)azetidin-1-yl)methyl)picolinate]"
14,110,"Cc1ccc(NC(=O)C2(c3ccccc3C(C)C)CN(S(=O)(=O)CCC(=O)NOCc3ccccc3)C2)c(OC(F)F)n1 [Ex 13-28, 1-((3-((benzyloxy)amino)-3-oxopropyl)sulfonyl)-N-(2-(difluoromethoxy)-6-methylpyridin-3-yl)-3-(2-isopropylphenyl)azetidine-3-carboxamide]"
15,8,"COC(=O)CNCC(=O)N1CC(C(=O)Nc2ccc(C)nc2OC(F)F)(c2ccccc2C(C)C)C1 [Ex 56, methyl (2-(3-((2-(difluoromethoxy)-6-methylpyridin-3-yl)carbamoyl)-3-(2-isopropylphenyl)azetidin-1-yl)-2-oxoethyl)glycinate]"
